Source: patent US9394297B2, “Amides as pim inhibitors” (AMGEN INC., priority 2012, dated 2016)
Where two headings read alike, the source gives them in different places.

Experiments:
[1] = target: Pim-1 (Homo sapiens (Human), UniProt P11309); assay: Pim enzyme assay (HTRF, 96-well), Pim-1; assay type: biochemical; conditions: full length recombinant Pim-1, biotinylated-BAD (S112) peptide, 10-point curve, 2 h RT, read-out: Pim-1 IC50 IP
How it was run: (§1)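 HTRF detection of biotinylated BAD (S112) phosphorylation by full-length recombinant His-tagged Pim-1 or Pim-2 in 60 mM Hepes pH 7.0, 0.05% BSA, 2 mM DTT at 22 °C: 2 h for Pim-1, 45 min for Pim-2. Stopped with EDTA; IC50 from 4-parameter logistic fit of percent of control.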

[2] = target: Pim-2 (Homo sapiens (Human), UniProt Q9P1W9); assay: Pim enzyme assay (HTRF, 96-well), Pim-2; assay type: biochemical; conditions: full length recombinant Pim-2, biotinylated-BAD (S112) peptide, 10-point curve, 45 min RT, read-out: Pim-2 IC50 IP
How it was run: as §1

[3] = tested on: KMS-12-BM myeloma cell line; assay: Pim KMS-12 cell assay (phospho-BAD S112 / total BAD, MSD); conditions: Homo sapiens, KMS-12-BM
[4] = read-out: KMS-12-BM IC50 IP, KMS-12-BM cells, phospho-BAD (S112) vs total BAD, 1 hour 50 min with compound

Sequence of Pim-2 (Q9P1W9 whole entry): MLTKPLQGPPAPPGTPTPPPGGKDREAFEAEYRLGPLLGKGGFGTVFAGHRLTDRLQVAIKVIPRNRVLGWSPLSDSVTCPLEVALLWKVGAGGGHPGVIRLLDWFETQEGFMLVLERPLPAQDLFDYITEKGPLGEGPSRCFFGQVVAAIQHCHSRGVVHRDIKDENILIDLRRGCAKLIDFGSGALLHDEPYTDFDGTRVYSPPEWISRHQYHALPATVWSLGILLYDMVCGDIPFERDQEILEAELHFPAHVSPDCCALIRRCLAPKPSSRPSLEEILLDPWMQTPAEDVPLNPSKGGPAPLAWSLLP
Sequence of Pim-1 (P11309 whole entry): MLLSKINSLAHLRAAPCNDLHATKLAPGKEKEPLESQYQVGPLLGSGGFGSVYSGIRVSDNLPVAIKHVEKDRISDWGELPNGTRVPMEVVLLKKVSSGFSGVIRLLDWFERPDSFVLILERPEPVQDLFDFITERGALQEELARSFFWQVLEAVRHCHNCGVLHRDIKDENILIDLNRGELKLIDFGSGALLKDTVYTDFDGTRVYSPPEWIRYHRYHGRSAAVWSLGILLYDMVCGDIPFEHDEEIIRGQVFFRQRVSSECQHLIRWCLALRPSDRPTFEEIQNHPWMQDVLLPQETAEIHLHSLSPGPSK

IC50 [1]	IC50 [2]	IC50 [3, 4]	SMILES	IC50 ([3]; read-out: KMS-12-BM IC50 IP)
0.0046 µM	0.0086 µM	6.35 µM	O=C1NCCc2[nH]c(-c3cccc4ccc(Oc5c(F)cccc5Cl)nc34)cc21 [Example 9, 2-(2-(2-chloro-6-fluorophenoxy)quinolin-8-yl)-6,7-dihydro-1H-pyrrolo[3,2-c]pyridin-4(5H)-one]	
0.0011 µM	0.0013 µM	0.0762 µM	Cc1nc2cccc(-c3cc4c([nH]3)CCNC4=O)c2nc1NC(C)(C)C [Example 193, 2-(3-(tert-butylamino)-2-methylquinoxalin-5-yl)-6,7-dihydro-1H-pyrrolo[3,2-c]pyridin-4(5H)-one]	
0.0028 µM	0.0216 µM	4.92 µM	O=C1NCCc2[nH]c(-c3cccc4ccc(NCc5ccccc5)nc34)cc21 [Example 21, 2-(2-(benzylamino)quinolin-8-yl)-6,7-dihydro-1H-pyrrolo[3,2-c]pyridin-4(5H)-one]	
0.0009 µM	0.0039 µM	0.539 µM	O=C1NCCc2[nH]c(-c3c(F)ccc4ccc(Nc5ccccc5)nc34)cc21 [Example 227, 2-(7-fluoro-2-(phenylamino)quinolin-8-yl)-6,7-dihydro-1H-pyrrolo[3,2-c]pyridin-4(5H)-one]	
0.0012 µM	0.0046 µM	1.17 µM	O=C1NCCc2[nH]c(-c3cccc4ccc(Nc5ccccc5F)nc34)cc21 [Example 6, 2-(2-((2-fluorophenyl)amino)quinolin-8-yl)-6,7-dihydro-1H-pyrrolo[3,2-c]pyridin-4(5H)-one]	
0.0022 µM	0.0043 µM	1.49 µM	CCN(c1ccccc1)c1cnc2cccc(-c3cc4c([nH]3)CCNC4=O)c2n1 [Example 186, 2-(3-(ethyl(phenyl)amino)quinoxalin-5-yl)-6,7-dihydro-1H-pyrrolo[3,2-c]pyridin-4(5H)-one]	
0.001 µM	0.0052 µM	2.74 µM	O=C1NCCc2[nH]c(-c3cccc4ccc(Nc5c(F)cccc5Cl)nc34)cc21 [Example 7, 2-(2-((2-chloro-6-fluorophenyl)amino)quinolin-8-yl)-6,7-dihydro-1H-pyrrolo[3,2-c]pyridin-4(5H)-one]	
0.0028 µM	0.0127 µM	1.28 µM	O=C1NCCc2[nH]c(-c3cccc4ccc(Nc5ccc(F)cc5F)nc34)cc21 [Example 8, 2-(2-((2,4-difluorophenyl)amino)quinolin-8-yl)-6,7-dihydro-1H-pyrrolo[3,2-c]pyridin-4(5H)-one]	
0.001 µM	0.012 µM	2.51 µM	O=C1NCCc2[nH]c(-c3cccc4ccc(N[C@H]5CCCNC5)nc34)cc21 [Example 123, (S)-2-(2-(piperidin-3-ylamino)quinolin-8-yl)-6,7-dihydro-1H-pyrrolo[3,2-c]pyridin-4(5H)-one]	
0.0003 µM	0.0006 µM	1.39 µM	CCN(c1cccnc1)c1ccc2cccc(-c3cc4c([nH]3)CCNC4=O)c2n1 [Example 32, 2-(2-(ethyl(pyridin-3-yl)amino)quinolin-8-yl)-6,7-dihydro-1H-pyrrolo[3,2-c]pyridin-4(5H)-one]	
0.0206 µM	0.115 µM	12.2 µM	O=C1NCCc2[nH]c(-c3cccc4ccc(N5CCOCC5)nc34)cc21 [Example 84, 2-(2-morpholinoquinolin-8-yl)-6,7-dihydro-1H-pyrrolo[3,2-c]pyridin-4(5H)-one]	
0.0362 µM	0.0176 µM	0.966 µM	Cc1nc2cccc(-c3cc4c([nH]3)CCNC4=O)c2nc1Nc1ccccn1 [Example 190, 2-(2-methyl-3-(pyridin-2-ylamino)quinoxalin-5-yl)-6,7-dihydro-1H-pyrrolo[3,2-c]pyridin-4(5H)-one]	
0.0121 µM	0.0211 µM	7.49 µM	O=C1NCCc2[nH]c(-c3cccc4ccc(Oc5ccc(F)cc5F)nc34)cc21 [Example 10, 2-(2-(2,4-difluorophenoxy)quinolin-8-yl)-6,7-dihydro-1H-pyrrolo[3,2-c]pyridin-4(5H)-one]	
0.0036 µM	0.019 µM	5.5 µM	O=C1NCCc2[nH]c(-c3cccc4ccc(NC5CCCC5)nc34)cc21 [Example 78, 2-(2-(cyclopentylamino)quinolin-8-yl)-6,7-dihydro-1H-pyrrolo[3,2-c]pyridin-4(5H)-one]	
0.0011 µM	0.0029 µM	1.13 µM	Nc1cccc(Nc2ccc3cccc(-c4cc5c([nH]4)CCNC5=O)c3n2)c1 [Example 110, 2-(2-((3-aminophenyl)amino)quinolin-8-yl)-6,7-dihydro-1H-pyrrolo[3,2-c]pyridin-4(5H)-one]	
0.0171 µM	0.0126 µM	0.427 µM	Cc1nc2cccc(-c3cc4c([nH]3)CCNC4=O)c2nc1NC1CCOCC1 [Example 127, 2-(2-methyl-3-((tetrahydro-2H-pyran-4-yl)amino)quinoxalin-5-yl)-6,7-dihydro-1H-pyrrolo[3,2-c]pyridin-4(5H)-one]	
0.0008 µM	0.0012 µM	0.407 µM	Cc1cc2cccc(-c3cc4c([nH]3)CCNC4=O)c2nc1Nc1ccccc1 [Example 105, 2-(3-methyl-2-(phenylamino)quinolin-8-yl)-6,7-dihydro-1H-pyrrolo[3,2-c]pyridin-4(5H)-one]	
0.0015 µM	0.0016 µM	0.165 µM	Cc1nc2cccc(-c3cc4c([nH]3)CCNC4=O)c2nc1Nc1ccccc1 [Example 183, 2-(2-methyl-3-(phenylamino)quinoxalin-5-yl)-6,7-dihydro-1H-pyrrolo[3,2-c]pyridin-4(5H)-one]	
0.0124 µM	0.0184 µM	4.66 µM	O=C1NCCc2[nH]c(-c3cccc4ncc(Oc5ccccc5)nc34)cc21 [Example 177, 2-(3-phenoxyquinoxalin-5-yl)-6,7-dihydro-1H-pyrrolo[3,2-c]pyridin-4(5H)-one]	
0.0045 µM	0.0105 µM	8.44 µM	Cc1cc2cccc(-c3cc4c([nH]3)CCNC4=O)c2nc1Nc1ccc(Br)cc1 [Example 106, 2-(2-((4-bromophenyl)amino)-3-methylquinolin-8-yl)-6,7-dihydro-1H-pyrrolo[3,2-c]pyridin-4(5H)-one]	
0.0006 µM	0.0046 µM	2.21 µM	N[C@H]1CCC[C@H](Nc2ccc3cccc(-c4cc5c([nH]4)CCNC5=O)c3n2)C1 (racemic) [Example 120, rac-2-(2-((trans-3-aminocyclohexyl)amino)quinolin-8-yl)-6,7-dihydro-1H-pyrrolo[3,2-c]pyridin-4(5H)-one]	
0.0037 µM	0.002 µM	0.0628 µM	Cc1nc2cccc(-c3cc4c([nH]3)CCNC4=O)c2nc1NC1CC1 [Example 194, 2-(3-(cyclopropylamino)-2-methylquinoxalin-5-yl)-6,7-dihydro-1H-pyrrolo[3,2-c]pyridin-4(5H)-one]	
0.0001 µM	0.0003 µM	0.348 µM	N[C@@H]1CCC[C@H](Nc2ccc3cccc(-c4cc5c([nH]4)CCNC5=O)c3n2)C1 (single isomer, unassigned) [Example 122, 2-(2-((cis-3-aminocyclohexyl)amino)quinolin-8-yl)-6,7-dihydro-1H-pyrrolo[3,2-c]pyridin-4(5H)-one]	
0.0063 µM	0.0046 µM	5.38 µM	O=C1NCCc2[nH]c(-c3cccc4ccc(Oc5cccnc5)nc34)cc21 [Example 39, 2-(2-(3-pyridinyloxy)-8-quinolinyl)-1,5,6,7-tetrahydro-4H-pyrrolo[3,2-c]pyridin-4-one]	

SMILES	IC50 [1]	IC50 [2]	IC50 [3, 4]	IC50 ([3]; read-out: KMS-12-BM IC50 IP)
Cc1nc2cccc(-c3cc4c([nH]3)CCNC4=O)c2nc1NC1CCCCC1 [Example 132, 2-(3-(cyclohexylamino)-2-methylquinoxalin-5-yl)-6,7-dihydro-1H-pyrrolo[3,2-c]pyridin-4(5H)-one]	0.0053 µM	0.0049 µM		0.143 µM
O=c1[nH]cnc2[nH]c(-c3cccc4ccc(Nc5ccccc5)nc34)cc12 [Example 16, 6-(2-(phenylamino)quinolin-8-yl)-3H-pyrrolo[2,3-d]pyrimidin-4(7H)-one]	0.0027 µM	0.0135 µM		3.85 µM
O=C1NCCn2cc(-c3cccc4ccc(Nc5cccnc5)nc34)cc21 [Example 166, 7-(2-(pyridin-3-ylamino)quinolin-8-yl)-3,4-dihydropyrrolo[1,2-a]pyrazin-1(2H)-one]	0.0011 µM	0.0022 µM	4.31 µM	
CN(c1ccccc1)c1cnc2cccc(-c3cc4c([nH]3)CCNC4=O)c2n1 [Example 188, 2-(3-(methyl(phenyl)amino)quinoxalin-5-yl)-6,7-dihydro-1H-pyrrolo[3,2-c]pyridin-4(5H)-one]	0.0028 µM	0.0044 µM		1.01 µM
Cc1nc2cccc(-c3cc4c([nH]3)CCNC4=O)c2nc1NC1COC1 [Example 196, 2-(2-methyl-3-(oxetan-3-ylamino)quinoxalin-5-yl)-6,7-dihydro-1H-pyrrolo[3,2-c]pyridin-4(5H)-one]	0.0238 µM	0.0114 µM	0.585 µM	
CN(c1ccccc1)c1ccc2cccc(-c3cc4c([nH]3)CCNC4=O)c2n1 [Example 4, 2-(2-(methyl(phenyl)amino)quinolin-8-yl)-6,7-dihydro-1H-pyrrolo[3,2-c]pyridin-4(5H)-one]	0.0021 µM	0.0068 µM		2.34 µM
